Experimental data taken from patent US20240279294A1, “p53 VARIANT WITH IMPROVED LIQUID-LIQUID PHASE SEPARATION ABILITY AND ACTIVITY AND USE THEREOF” (Zhejiang University, priority 2023, published 2024).

B1: LLPSE-p53 (SEQ ID NO.7): p53 in rat with added sequence (including linker) GGASGHHHHHHHHGGAGGGGRRRRRRKK (protein)
chain: MEDSQSDMSIELPLSQETFSCLWKLLPPDDILPTTATGSPNSMEDLFLPQDVAELLEGPEEALQVSAPAAQEPGTEAPAPVAPASATPWPLSSSVPSQKTYQGNYGFHLGFLQSGTAKSVMCTYSISLNKLFCQLAKTCPVQLWVTSTPPPGTRVRAMAIYKKSQHMTEVVRRCPHHERCSDGDGLAPPQHLIRVEGNPYAEYLDDRQTFRHSVVVPYEPPEVGSDYTTIHYKYMCNSSCMGGMNRRPILTIITLEDSSGNLLGRDSFEVRVCACPGRDRRTEEENFRKKEEHCPELPPGSAKRALPTSTSSSPQQKKKPLDGEYFTLKIRGRERFEMFRELNEALELKDARAAEESGDSRAHSSYPKTKKGQSTSRHKKPMIKKVGPDSDGGASGHHHHHHHHGGAGGGGRRRRRRKK

Tests used:
U-2OS cells = assay: cell viability (CCK8), protein delivery combined with TAS-120 or IWR-1, U-2OS; format: cell-based, human; conditions: LLPSE-p53 (SEQ ID NO.3) protein 0.5-2 μM 24 h, then inhibitor 5-20 μM 24 h; compared with inhibitor plus buffer
Procedure: The above system was sterilized with a 0.22 μm filter membrane. • 4. The complete medium in the well plate was sucked and discarded, and the above protein delivery system was added, the plate was then placed in an incubator for culture for 24 h. • 5. […] Cell viability was measured by a CCK8 method and with a M5 microplate reader. • 7. Graphpad5 software was used for data processing and one-way ANOVA method was used for statistical analysis.

CDKN1A = CDKN1A luciferase reporter assay in H1299 cells; format: cell-based, human; conditions: H1299, plasmid co-transfected with CDKN1A reporter gene plasmid, 24 h; compared with WT-p53
Procedure: (§1) Implementation was made as follows: • 1. Proper number of cells were seeded into a 96-well cell culture plate, plasmids and CDKN1A reporter gene plasmid were co-transformed when cell density reached 60-70%, the cells were then cultured in an incubator for 24 h. • 2. A chemiluminescence test was carried out with a luciferase reporting system test kit produced by Promega and a M5 microplate reader. • 3. Graphpad5 software was used for data processing and analysis.
as §1, with “chemiluminescence assay” for “chemiluminescence test”, “with the” for “with a”, “system” for “system test”
Specific implementation steps can refer to Example 8.

Molecule | killing of U-2OS cells by the inhibitor when combined with LLPSE-p53 protein (U-2OS cells) | transactivation activity on CDKN1A (CDKN1A)
O=C(Nc1cccc2cccnc12)c1ccc(N2C(=O)[C@@H]3[C@H](C2=O)[C@@H]2C=C[C@H]3C2)cc1 [IWR-1] | significantly promotes TAS-120 or IWR-1 to kill U-2OS cells | 
B1 |  | significantly increases the transactivation activity of CDKN1A
